{"source": "patent US20050215635A1", "about": "“Diarylheptanoid compounds and uses thereof” (priority 2004, published 2005)", "key": {"[1]": {"test_system": "NF-κB DNA binding activity", "assay": "Electrophoresis mobility shift assay (EMSA) of NF-κB DNA binding in RAW 264.7 nuclear extracts", "type": "cell-based, mouse", "conditions": "RAW 264.7, 2 hrs", "experimental": "FIG. 6A and 6B. Inhibition of LPS induced NF-κB activation by HMP. 6A: Nuclear protein lysates of RAW 264.7 cells were prepared after 2 hrs of treatment with LPS (0.5 μg/ml) either alone or with different concentration of HMP. Six μg of nuclear protein was used in DNA binding assay and the total binding reaction was resolved in 5% nondenaturing polyacrylamide gel. The retarded bands are indicated with arrow. Data represent one of three experiments performed separately with similar results. Lane 1, control; 2, LPS (0.5 μg/ml); 3, LPS+HMP (25 μM); 4, HMP (12.5 μM). NS, non specific. 6B: Plot of integrated signal density for each lane in FIG. 6A.\nRAW 264.7 cells were treated with either LPS (0.5 μg/ml) alone or with various concentration of HMP for 2 hrs. Thereafter, nuclear extracts were prepared using a modified method (Lahti et al., 2000 294:1188-1194). Briefly, cells were washed once with PBS (pH 7.2) and were suspended in hypotonic buffer A [10 mM HEPES (pH 7.6), 10 mM KCl, 0.1 mM EDTA, 1 mM DTT, 0.5 mM PMSF] for 10 min on ice, and vortexed for 10 sec. Nuclei were pelleted by centrifugation at 12,000 g for 5 minutes. […] Mobility shift of DNA due to binding of NF-κB complex was detected by Phosphor Imager-445 SI (Molecular Dynamics, Amarsham-Pharmacia, NJ, USA)."}, "iNOS mRNA expression": {"test_system": "iNOS mRNA expression", "assay": "Relative RT-PCR of iNOS mRNA expression in RAW 264.7 cells", "type": "cell-based, mouse", "conditions": "RAW 264.7, 12 hrs", "experimental": "FIG. 4A and B: Effect of HMP on mRNA expression of iNOS and COX-2. Fig. A, RAW 264.7 cells were incubated in the presence of LPS (0.5 μg/ml) with or without HMP (12.5, 25 μM) for 12 hrs. Total RNA isolated from RAW 264.7 cells after 12 hrs of treatments with LPS alone or with various concentration of HMP was reverse transcribed to make cDNA and 2 μl (for iNOS) or 1 μl (for COX-2) of cDNA was amplified using gene specific primer (Ambion Inc). Ten μl of each PCR reaction was resolved in 2% agarose gel. Lane 1, control; 2. LPS (0.5 μg/ml); 3, LPS+HMP (12.5 μM) and Lane, 4 LPS+HMP (25 μM). Fig. B, Histogram showing densitometric analysis of iNOS and COX-2 mRNA expression. […] This experiment was repeated 3 times separately with similar observation.\nThe RAW 264.7 cells were cultured (10^6/well) in 6 well plate for 24 hrs and then medium was replaced by fresh medium and different concentrations of HMP either alone or in combination of LPS was added and further cultured for 12 hrs. […] Linear range of amplification of iNOS and COX-2 cDNA (2 μl for COX-2 and 1μl for iNOS of RT reaction mixture) was determined using gene specific primers from Ambion Inc (TX, USA), following manufacturer's instruction. The optimum amount of 18S primer and competitor for iNOS and COX-2 gene were also determined as per manufacturer's instruction. […]"}}, "data": [{"molecule": "COc1cc(CC/C=C/C(=O)CCc2ccccc2)ccc1O", "note": "[AO-4, 7-(4″-hydroxy-3″-methoxyphenyl)-1-phenyl-hept-4-en-3-one]", "values": [{"measurement": "LPS induced NF-κB DNA binding activity (EMSA, in words)", "setting": "[1]; HMP 25 μM + LPS (0.5 μg/ml)", "value": "marked inhibition"}, {"measurement": "relative levels of NF-κB DNA binding activity (EMSA, in words)", "setting": "[1]; HMP 12.5 and 25 μM + LPS (0.5 μg/ml)", "value": "less in comparison to LPS alone"}, {"measurement": "inhibition of LPS induced iNOS mRNA expression (densitometry, ratio to 18 S RNA)", "setting": "iNOS mRNA expression; HMP 12.5 μM + LPS (0.5 μg/ml)", "value": 47.8, "unit": "%"}, {"measurement": "inhibition of LPS induced iNOS mRNA expression (densitometry, ratio to 18 S RNA)", "setting": "iNOS mRNA expression; HMP 25 μM + LPS (0.5 μg/ml)", "value": 75.5, "unit": "%"}]}]}
